Assay results taken from patent EP0910563B1, “INTEGRIN RECEPTOR ANTAGONISTS” (SMITHKLINE BEECHAM CORPORATION, priority 1995, dated 1997).

What was measured:
[1] = molecular target: T1, fibrinogen receptor (αIIbβ3) (Homo sapiens, UniProt P05106+P08514); experiment: Competitive binding of [3H]-SK&F-107260 to αIIbβ3 in liposomes; conditions: purified platelet αIIbβ3-containing liposomes, 4.5 nM [3H]-SK&F-107260
T1 construct: followed by the addition of 1 µg of the purified platelet αIIbβ3-containing liposomes; tissue Red Cross (platelets); host or cells: outdated, washed human platelets; lentil lectin sepharose purification
T1 sequence (P08514 32-887 limits assumed): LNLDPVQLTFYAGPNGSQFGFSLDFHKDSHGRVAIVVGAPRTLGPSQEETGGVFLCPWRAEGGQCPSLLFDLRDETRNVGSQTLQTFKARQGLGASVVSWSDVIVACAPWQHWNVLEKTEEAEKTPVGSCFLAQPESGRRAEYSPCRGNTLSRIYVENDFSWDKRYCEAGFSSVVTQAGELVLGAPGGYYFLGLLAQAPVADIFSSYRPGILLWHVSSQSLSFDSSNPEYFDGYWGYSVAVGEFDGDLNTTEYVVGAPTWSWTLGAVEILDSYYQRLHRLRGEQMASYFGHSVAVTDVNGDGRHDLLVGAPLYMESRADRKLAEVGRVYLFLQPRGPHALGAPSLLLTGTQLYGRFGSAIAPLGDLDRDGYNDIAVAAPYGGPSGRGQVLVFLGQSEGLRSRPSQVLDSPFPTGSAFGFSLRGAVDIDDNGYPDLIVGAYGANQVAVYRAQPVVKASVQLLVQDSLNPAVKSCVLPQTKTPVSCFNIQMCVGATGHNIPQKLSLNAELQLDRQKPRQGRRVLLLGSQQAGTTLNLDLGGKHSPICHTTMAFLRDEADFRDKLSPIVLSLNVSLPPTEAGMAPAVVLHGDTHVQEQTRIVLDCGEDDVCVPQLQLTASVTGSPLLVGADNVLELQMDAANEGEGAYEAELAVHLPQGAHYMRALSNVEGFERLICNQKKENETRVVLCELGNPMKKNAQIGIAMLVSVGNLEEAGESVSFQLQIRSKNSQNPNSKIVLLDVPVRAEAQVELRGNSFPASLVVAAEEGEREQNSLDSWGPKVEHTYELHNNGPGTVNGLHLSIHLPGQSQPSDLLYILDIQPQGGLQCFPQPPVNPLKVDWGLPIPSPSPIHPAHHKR
T1 sequence (P08514 891-1039 partner limits assumed): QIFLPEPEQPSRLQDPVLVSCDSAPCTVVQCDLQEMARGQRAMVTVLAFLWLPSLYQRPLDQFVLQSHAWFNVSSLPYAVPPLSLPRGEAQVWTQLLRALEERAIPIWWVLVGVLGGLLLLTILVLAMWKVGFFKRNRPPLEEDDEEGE
T1 sequence (P05106 27-788): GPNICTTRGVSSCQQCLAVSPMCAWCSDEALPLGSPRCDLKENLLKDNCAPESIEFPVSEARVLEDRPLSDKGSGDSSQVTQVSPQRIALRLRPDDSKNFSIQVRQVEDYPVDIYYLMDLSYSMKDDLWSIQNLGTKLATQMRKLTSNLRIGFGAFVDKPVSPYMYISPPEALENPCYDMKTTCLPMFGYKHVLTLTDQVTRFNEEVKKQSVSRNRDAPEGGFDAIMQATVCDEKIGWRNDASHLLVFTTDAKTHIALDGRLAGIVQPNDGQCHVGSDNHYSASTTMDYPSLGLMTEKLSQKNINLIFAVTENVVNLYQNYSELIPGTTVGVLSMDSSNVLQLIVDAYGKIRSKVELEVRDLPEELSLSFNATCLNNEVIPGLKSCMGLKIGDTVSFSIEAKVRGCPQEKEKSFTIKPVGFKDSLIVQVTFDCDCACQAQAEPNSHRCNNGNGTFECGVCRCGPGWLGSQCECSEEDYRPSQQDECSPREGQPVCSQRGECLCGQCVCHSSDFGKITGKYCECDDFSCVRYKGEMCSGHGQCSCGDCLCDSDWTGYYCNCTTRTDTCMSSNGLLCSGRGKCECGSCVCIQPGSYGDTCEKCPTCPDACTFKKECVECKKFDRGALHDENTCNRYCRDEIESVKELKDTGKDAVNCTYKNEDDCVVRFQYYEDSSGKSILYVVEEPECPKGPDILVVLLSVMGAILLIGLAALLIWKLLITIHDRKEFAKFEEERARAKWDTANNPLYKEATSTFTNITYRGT
Protocol: Ten units of outdated, washed human platelets (obtained from Red Cross) were lyzed by gentle stirring in 3% octylglucoside, 20 mM Tris-HCl, pH 7.4, 140 mM NaCl, 2 mM CaCl2 at 4°C for 2 h. The lysate was centrifuged at 100,000g for 1 h. The supernatant obtained was applied to a 5 mL lentil lectin sepharose 4B column (E.Y. Labs) preequilibrated with 20 mM Tris-HCl, pH 7.4, 100 mM NaCI, 2 mM CaCl2, 1% octylglucoside (buffer A). After 2 h incubation, the column was washed with 50 mL cold buffer A. The lectin-retained αIIbβ3 was eluted with buffer A containing 10% dextrose. All procedures were performed at 4°C. The αIIbβ3 obtained was >95% pure as shown by SDS polyacrylamide gel electrophoresis. […]
The binding to the fibrinogen receptor (αIIbβ3) was assayed by an indirect competitive binding method using [^3H]-SK&F-107260 as an RGD-type ligand. […] Bound radioactivity remaining on the filters was counted in 1.5 mL Ready Solve (Beckman Instruments, Fullerton, CA) in a Beckman Liquid Scintillation Counter (Model LS6800), with 40% efficiency. Nonspecific binding was determined in the presence of 2 µM unlabeled SK&F-107260 and was consistently less than 0.14% of the total radioactivity added to the samples. […]
Competition binding data were analyzed by a nonlinear least-squares curve fitting procedure. […]

αvβ3 = molecular target: T2, αvβ3 (Homo sapiens, UniProt P05106+P06756); experiment: Solid-phase [3H]-SK&F-107260 binding to αvβ3 (inhibition of vitronectin binding); conditions: human placenta or platelet αvβ3 on ELISA plates, 5.0 nM [3H]-SK&F-107260
T2 construct: Human placenta or human platelet αvβ3 (0.1-0.3 mg/mL) in buffer T; from tissue; host or cells: human placenta or human platelets
T2 sequence (P06756 31-889 limits assumed): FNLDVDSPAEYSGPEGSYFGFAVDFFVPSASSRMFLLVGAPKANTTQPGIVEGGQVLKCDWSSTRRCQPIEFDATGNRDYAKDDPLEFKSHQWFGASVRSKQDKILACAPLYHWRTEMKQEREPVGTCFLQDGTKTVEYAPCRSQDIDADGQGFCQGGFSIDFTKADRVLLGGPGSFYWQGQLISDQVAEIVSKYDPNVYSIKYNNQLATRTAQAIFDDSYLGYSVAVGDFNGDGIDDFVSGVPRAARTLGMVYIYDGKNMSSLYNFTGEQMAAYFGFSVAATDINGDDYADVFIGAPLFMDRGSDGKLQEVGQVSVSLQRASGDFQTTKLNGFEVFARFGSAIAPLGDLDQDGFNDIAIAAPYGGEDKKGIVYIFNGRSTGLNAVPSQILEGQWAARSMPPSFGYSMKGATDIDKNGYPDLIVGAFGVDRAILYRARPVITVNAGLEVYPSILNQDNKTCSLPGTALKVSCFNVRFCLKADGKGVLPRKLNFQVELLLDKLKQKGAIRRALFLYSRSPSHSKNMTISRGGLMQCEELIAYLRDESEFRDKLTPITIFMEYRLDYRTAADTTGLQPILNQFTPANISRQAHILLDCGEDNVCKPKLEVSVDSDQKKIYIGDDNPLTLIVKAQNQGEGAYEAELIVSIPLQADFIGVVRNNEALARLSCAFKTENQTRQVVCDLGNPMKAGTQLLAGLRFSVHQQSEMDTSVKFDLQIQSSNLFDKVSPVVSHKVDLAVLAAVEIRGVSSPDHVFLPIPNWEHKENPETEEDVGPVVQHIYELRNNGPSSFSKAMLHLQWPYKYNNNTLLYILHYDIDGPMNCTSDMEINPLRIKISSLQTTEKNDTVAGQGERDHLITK
T2 sequence (P06756 891-1048 partner limits assumed): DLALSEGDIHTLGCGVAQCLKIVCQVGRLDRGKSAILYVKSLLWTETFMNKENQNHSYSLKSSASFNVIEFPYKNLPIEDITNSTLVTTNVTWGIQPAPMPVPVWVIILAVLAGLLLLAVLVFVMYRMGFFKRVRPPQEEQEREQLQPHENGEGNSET
T2 sequence (P05106 27-788): as the sequence (P05106 27-788) above
Protocol: Solid-Phase [^3H]-SK&F-107260 Binding to αvβ3: Human placenta or human platelet αvβ3 (0.1-0.3 mg/mL) in buffer T (containing 2 mM CaCl2 and 1% octylglucoside) was diluted with buffer T containing 1 mM CaCl2, 1 mM MnCl2, 1 mM MgCl2 (buffer A) and 0.05% NaN3, and then immediately added to 96-well ELISA plates (Corning, New York, NY) at 0.1 mL per well. 0.1 - 0.2 µg of αvβ3 was added per well. The plates were incubated overnight at 4°C. At the time of the experiment, the wells were washed once with buffer A and were incubated with 0.1 mL of 3.5% bovine serum albumin in the same buffer for 1 hr at room temperature. Following incubation the wells were aspirated completely and washed twice with 0.2 mL buffer A. […]
The plates were incubated for 1 hr at room temperature. […] The receptors were solubilized with 0.1 mL of 1% SDS and the bound [^3H]-SK&F-107260 was determined by liquid scintillation counting with the addition of 3 mL Ready Safe in a Beckman LS Liquid Scintillation Counter, with 40% efficiency. Nonspecific binding of [^3H]-SK&F-107260 was determined in the presence of 2 µM SK&F-107260 and was consistently less than 1% of total radioligand input. […] The Ki (dissociation constant of the antagonist) was calculated according to the equation: Ki = IC50/(1 + L/Kd), where L and Kd were the concentration and the dissociation constant of [^3H]-SK&F-107260, respectively.

Ki [1] [nM] | Ki (αvβ3) [nM] | SMILES
> 50000 | 23 | CN(Cc1nc2ccccc2[nH]1)C(=O)c1ccc2c(c1)Cc1ccccc1C(CC(=O)O)C2 (racemic) [Example 1, (±)-10,11-dihydro-3-[[[(1H-benzimidazol-2-yl)methyl]methylamino]carbonyl]-5H-dibenzo[a,d]cycloheptene-10-acetic acid]
9 | 15000 | O=C(O)CC1Cc2ccc(C(=O)N3CCC(C4CCNCC4)CC3)cc2Cc2ccccc21 (racemic) [Example 2, (±)-10,11-dihydro-3-[1-(4,4'-bipiperidinyl)carbonyl]-5H-dibenzo[a,d]cycloheptene-10-acetic acid]
